In patent US12077503B2, “Substituted cyclic amides and their use as herbicides” (FMC CORPORATION, priority 2015, dated 2024):

Key:
Assay type in all cases: in vivo
[1] = system: sedge, umbrella (small-flower umbrella sedge, Cyperus difformis); assay: Test B flooded paddy test; conditions: Cyperus difformis, 250 g ai/ha, Flood; 0 to 100 scale where 0 is no effect and 100 is complete control; read-out: Sedge, Umbrella plant response rating
How it was run: (§1)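 Greenhouse paddy pots with 2-leaf stage plants received compound by direct addition to floodwater 3 cm deep, kept at that level. Scored visually at 13–15 d versus controls (0 no effect; 100 complete control).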

[2] = system: rice (Oryra sativa); assay: Test B flooded paddy test; conditions: Oryza sativa, 250 g ai/ha, Flood; 0 to 100 scale where 0 is no effect and 100 is complete control; read-out: Rice plant response rating
How it was run: as §1

[3] = system: ducksalad (Heteranthera limosa); assay: Test B flooded paddy test; conditions: Heteranthera limosa, 250 g ai/ha, Flood; 0 to 100 scale where 0 is no effect and 100 is complete control; read-out: Ducksalad plant response rating
How it was run: as §1

[4] = system: barnyardgrass (Echinochloa crus-galli); assay: Test B flooded paddy test; conditions: Echinochloa crus-galli, 250 g ai/ha, Flood; 0 to 100 scale where 0 is no effect and 100 is complete control; read-out: Barnyardgrass plant response rating
How it was run: as §1

[5] = system: ragweed (common ragweed, Ambrosia elatior); assay: Test A postemergence; conditions: Ambrosia artemisiifolia, post-emergence, 240 h
How it was run: (§2)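 Compounds were formulated in a non-phytotoxic solvent mixture with surfactant and applied as a preemergence directed soil spray after seeding, or sprayed postemergence over plants 2 to 10 cm tall at the one- to two-leaf stage. Evaluation after about 10 d compared treated with untreated controls, using a scale from 0 (no effect) to 100 (complete control).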

[6] = system: blackgrass (Alopecurus myosuroides); assay: Test A postemergence; conditions: Alopecurus myosuroides, post-emergence, 240 h
How it was run: as §2

[7] = system: corn (Zea mays); assay: Test A postemergence; conditions: Zea mays, post-emergence, 240 h
How it was run: as §2

[8] = system: giant foxtail (Setaria faberii); assay: Test A postemergence; conditions: Setaria faberi, post-emergence, 240 h
How it was run: as §2

[9] = system: Galium (catchweed bedstraw, Galium aparine); assay: Test A postemergence; conditions: Galium, post-emergence, 240 h
How it was run: as §2

[10] = system: barnyardgrass (Echinochloa crus-galli); assay: Test A postemergence; conditions: Echinochloa crus-galli, post-emergence, 240 h
How it was run: as §2

[11] = system: ryegrass, Italian (Italian ryegrass, Lolium multiflorum); assay: Test A postemergence; conditions: Lolium multiflorum, post-emergence, 240 h
How it was run: as §2

[12] = system: Kochia (Kochia scoparia); assay: Test A postemergence; conditions: Bassia scoparia, post-emergence, 240 h
How it was run: as §2

[13] = system: wheat (Triticum aestivum); assay: Test A postemergence; conditions: Triticum aestivum, post-emergence, 240 h
How it was run: as §2

[14] = system: pigweed (Amaranthus retroflexus); assay: Test A postemergence; conditions: Amaranthus retroflexus, post-emergence, 240 h
How it was run: as §2

[15] = system: ragweed (common ragweed, Ambrosia elatior); assay: Test A preemergence; conditions: Ambrosia artemisiifolia, pre-emergence, 240 h, 0 to 100 scale where 0 is no effect and 100 is complete control, read-out: Ragweed plant response rating
How it was run: as §2

[16] = system: giant foxtail (Setaria faberii); assay: Test A preemergence; conditions: Setaria faberi, pre-emergence, 240 h, 0 to 100 scale where 0 is no effect and 100 is complete control, read-out: Foxtail, Giant plant response rating
How it was run: as §2

[17] = system: barnyardgrass (Echinochloa crus-galli); assay: Test A preemergence; conditions: Echinochloa crus-galli, pre-emergence, 240 h, 0 to 100 scale where 0 is no effect and 100 is complete control, read-out: Barnyardgrass plant response rating
How it was run: as §2

[18] = system: ryegrass, Italian (Italian ryegrass, Lolium multiflorum); assay: Test A preemergence; conditions: Lolium multiflorum, pre-emergence, 240 h, 0 to 100 scale where 0 is no effect and 100 is complete control, read-out: Ryegrass, Italian plant response rating
How it was run: as §2

[19] = system: Kochia (Kochia scoparia); assay: Test A preemergence; conditions: Bassia scoparia, pre-emergence, 240 h, 0 to 100 scale where 0 is no effect and 100 is complete control, read-out: Kochia plant response rating
How it was run: as §2

[20] = system: pigweed (Amaranthus retroflexus); assay: Test A preemergence; conditions: Amaranthus retroflexus, pre-emergence, 240 h, 0 to 100 scale where 0 is no effect and 100 is complete control, read-out: Pigweed plant response rating
[21] = 125 g ai/ha, preemergence, approx. 10 d

SMILES: CN1C[C@H](c2ccc(F)c(Oc3ccccc3)c2)[C@@H](C(=O)Nc2ccccc2S(C)(=O)=O)C1=O [Compound 1143]
- pest or weed control at 250 g/ha [1]: 0%
- pest or weed control at 250 g/ha [2]: 0%
- pest or weed control at 250 g/ha [3]: 0%
- pest or weed control at 250 g/ha [4]: 0%
- pest or weed control at 125 g/ha ([5]; 125 g ai/ha, postemergence, visual injury vs untreated controls after approx. 10 d, 0 = no effect, 100 = complete control, read-out: Ragweed plant response rating (0 to 100 scale)): 0%
- pest or weed control at 31 g/ha ([5]; Postemergence, 31 g ai/ha, visual injury after approx. 10 d, 0 to 100 scale, 0 no effect, 100 complete control, read-out: Plant response rating, Ragweed): 0%
- pest or weed control at 125 g/ha ([6]; 125 g ai/ha, postemergence, visual injury on 0 to 100 scale (0 no effect, 100 complete control), approx. 10 d, read-out: Blackgrass plant response rating): 0%
- pest or weed control at 31 g/ha ([6]; Postemergence, 31 g ai/ha, visual injury after approx. 10 d, 0 to 100 scale, 0 no effect, 100 complete control, read-out: Plant response rating, Blackgrass): 0%
- plant injury at 125 g/ha ([7]; 125 g ai/ha, postemergence, visual injury on 0 to 100 scale (0 no effect, 100 complete control), approx. 10 d, read-out: Corn plant response rating): 0%
- Corn plant response rating (crop injury, 0 = no effect, 100 = complete kill) at 31 g/ha ([7]; Postemergence, 31 g ai/ha, visual injury after approx. 10 d, 0 to 100 scale, 0 no effect, 100 complete control): 0%
- pest or weed control at 125 g/ha ([8]; 125 g ai/ha, postemergence, visual injury on 0 to 100 scale (0 no effect, 100 complete control), approx. 10 d, read-out: Foxtail, Giant plant response rating): 40%
- pest or weed control at 31 g/ha ([8]; Postemergence, 31 g ai/ha, visual injury after approx. 10 d, 0 to 100 scale, 0 no effect, 100 complete control, read-out: Plant response rating, Foxtail, Giant): 0%
- pest or weed control at 125 g/ha ([9]; 125 g ai/ha, postemergence, visual injury on 0 to 100 scale (0 no effect, 100 complete control), approx. 10 d, read-out: Galium plant response rating): 0%
- pest or weed control at 31 g/ha ([9]; Postemergence, 31 g ai/ha, visual injury after approx. 10 d, 0 to 100 scale, 0 no effect, 100 complete control, read-out: Plant response rating, Galium): 0%
- pest or weed control at 125 g/ha ([10]; 125 g ai/ha, postemergence, visual injury on 0 to 100 scale (0 no effect, 100 complete control), approx. 10 d, read-out: Barnyardgrass plant response rating): 50%
- pest or weed control at 31 g/ha ([10]; Postemergence, 31 g ai/ha, visual injury after approx. 10 d, 0 to 100 scale, 0 no effect, 100 complete control, read-out: Plant response rating, Barnyardgrass): 0%
- pest or weed control at 125 g/ha ([11]; 125 g ai/ha, postemergence, visual injury vs untreated controls after approx. 10 d, 0 = no effect, 100 = complete control, read-out: Ryegrass, Italian plant response rating (0 to 100 scale)): 0%
- pest or weed control at 31 g/ha ([11]; Postemergence, 31 g ai/ha, visual injury after approx. 10 d, 0 to 100 scale, 0 no effect, 100 complete control, read-out: Plant response rating, Ryegrass, Italian): 0%
- pest or weed control at 125 g/ha ([12]; 125 g ai/ha, postemergence, visual injury on 0 to 100 scale (0 no effect, 100 complete control), approx. 10 d, read-out: Kochia plant response rating): 0%
- pest or weed control at 31 g/ha ([12]; Postemergence, 31 g ai/ha, visual injury after approx. 10 d, 0 to 100 scale, 0 no effect, 100 complete control, read-out: Plant response rating, Kochia): 0%
- plant injury at 125 g/ha ([13]; 125 g ai/ha, postemergence, visual injury vs untreated controls after approx. 10 d, 0 = no effect, 100 = complete control, read-out: Wheat plant response rating (0 to 100 scale)): 0%
- plant injury at 31 g/ha ([13]; Postemergence, 31 g ai/ha, visual injury after approx. 10 d, 0 to 100 scale, 0 no effect, 100 complete control, read-out: Plant response rating, Wheat): 0%
- pest or weed control at 125 g/ha ([14]; 125 g ai/ha, postemergence, visual injury vs untreated controls after approx. 10 d, 0 = no effect, 100 = complete control, read-out: Pigweed plant response rating (0 to 100 scale)): 20%
- pest or weed control at 31 g/ha ([14]; Postemergence, 31 g ai/ha, visual injury after approx. 10 d, 0 to 100 scale, 0 no effect, 100 complete control, read-out: Plant response rating, Pigweed): 0%
- pest or weed control at 31 g/ha ([15]; 31 g ai/ha, Preemergence): 0%
- pest or weed control at 125 g/ha [15, 21]: 0%
- pest or weed control at 31 g/ha ([16]; 31 g ai/ha, Preemergence): 20%
- pest or weed control at 125 g/ha [16, 21]: 80%
- pest or weed control at 31 g/ha ([17]; 31 g ai/ha, Preemergence): 0%
- pest or weed control at 125 g/ha [17, 21]: 40%
- pest or weed control at 31 g/ha ([18]; 31 g ai/ha, Preemergence): 0%
- pest or weed control at 125 g/ha [18, 21]: 0%
- pest or weed control at 31 g/ha ([19]; 31 g ai/ha, Preemergence): 0%
- pest or weed control at 125 g/ha [19, 21]: 0%
- pest or weed control at 31 g/ha ([20]; 31 g ai/ha, Preemergence): 0%
- pest or weed control at 125 g/ha [20, 21]: 0%
